From patent US6706663B2, “Herbicidal 3-heterocyclic substituted benzisothiazole and benzisoxazole compounds” (Wyeth, priority 2000, dated 2004)

Columns and labels:
[1] = tested on: ABUTH (Abutilon theophrasti); assay: Postemergence herbicidal evaluation; assay type: in vivo, Medic.
Procedure, shortened: (§1)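 Seedlings grown for about two weeks were sprayed postemergence and then kept under standard greenhouse care. Injury was rated visually 4–5 weeks after treatment on a 0–9 scale against untreated controls, and ratings from repeat tests were averaged.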

[2] = tested on: AMBEL (Ambrosia artemisifolia); assay: Postemergence herbicidal evaluation; assay type: in vivo, L.
Procedure, shortened: as §1

[3] = tested on: CASOB (Cassia obtusifolia); assay: Postemergence herbicidal evaluation; assay type: in vivo, L.
Procedure, shortened: as §1

[4] = tested on: CHEAL (Chenopodium album); assay: Postemergence herbicidal evaluation; assay type: in vivo, L.
Procedure, shortened: as §1

[5] = tested on: IPOHE (Ipomoea hederacea); assay: Postemergence herbicidal evaluation; assay type: in vivo, (L.) Jacq.
Procedure, shortened: as §1

[6] = tested on: ECHCG (Echinochloa crus-galli); assay: Postemergence herbicidal evaluation; assay type: in vivo, (L.) Beau
Procedure, shortened: as §1

ORYSAT (Rice, Tebonnet) [7] = assay: Postemergence herbicidal evaluation; assay type: in vivo, Oryza sativa, (L.) Tebonnet
Procedure, shortened: as §1

[8] = tested on: TRZAWR (Wheat, Winter, cv Riband); assay: Postemergence herbicidal evaluation; assay type: in vivo, Triticum aestivum
Procedure, shortened: as §1

ZEAMX (Corn, Field) = assay: Postemergence herbicidal evaluation; assay type: in vivo, Zea mays, L.
Procedure, shortened: as §1

[9] = tested on: ABUTH (Abutilon theophrasti); assay: Preemergence herbicidal evaluation; assay type: in vivo, Medic.; details: preemergence, rated 4-5 weeks after treatment
[10] = tested on: AMBEL (Ambrosia artemisifolia); assay: Preemergence herbicidal evaluation; assay type: in vivo, L.; details: preemergence, rated 4-5 weeks after treatment
Procedure, shortened: (§2)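 Seeds mixed with potting soil were planted atop about one inch of soil, then sprayed with test compound in aqueous acetone. Cups were kept in the greenhouse and rated visually 4–5 weeks after treatment on a 0–9 scale against untreated control.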

[11] = tested on: CASOB (Cassia obtusifolia); assay: Preemergence herbicidal evaluation; assay type: in vivo, L.; details: preemergence, rated 4-5 weeks after treatment
Procedure, shortened: as §2

[12] = tested on: CHEAL (Chenopodium album); assay: Preemergence herbicidal evaluation; assay type: in vivo, L.; details: preemergence, rated 4-5 weeks after treatment
Procedure, shortened: as §2

ORYSAT (Rice, Tebonnet) [13] = assay: Preemergence herbicidal evaluation; assay type: in vivo, Oryza sativa, (L.) Tebonnet; details: preemergence, rated 4-5 weeks after treatment
[14] = tested on: TRZAWR (Wheat, Winter, cv Riband); assay: Preemergence herbicidal evaluation; assay type: in vivo, Triticum aestivum; details: preemergence, rated 4-5 weeks after treatment
Procedure, shortened: as §2

[15] = tested on: ECHORC (Echinochloa oryzoides); assay: Flooded paddy, preemergence weed control; assay type: in vivo, Echinochloa oryzoides (Ard.) Fritsch.; details: rated 3-4 weeks after treatment, 0-9 rating scale
Procedure, shortened: (§3)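 Plants were established from seed or propagating organs in flooded silt loam, with the water surface held 1.5 to 3 cm above the soil for the entire experiment. Injury was assessed visually against a control and given a 0-9 score.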

[16] = tested on: CYPSE (Cyperus serotinus); assay: Flooded paddy, preemergence weed control; assay type: in vivo, Rottb.; details: rated 3-4 weeks after treatment, 0-9 rating scale
Procedure, shortened: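 Seeds or propagules were planted 0.5 cm deep in silt loam and flooded to 1.5–3 cm. Compounds in 50/50 v/v aqueous/acetone were pipetted into the flood water at about 0.0080 to 0.1250 kg/ha. After 3–4 weeks in the greenhouse, effect was rated visually on a 0–9 scale versus untreated control.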

[17] = tested on: SAGPY (Sagittaria pygmaea); assay: Flooded paddy, preemergence weed control; assay type: in vivo, L.; details: rated 3-4 weeks after treatment, 0-9 rating scale
Procedure, shortened: as §3

ORYSAT (Rice, Tebonnet) [18] = assay: Flooded paddy, post-transplant rice tolerance; assay type: in vivo, Oryza sativa, (L.) Tebonnet; details: flooded paddy, post-transplant rice, rated 3-4 weeks after treatment, 0-9 rating scale
Procedure, shortened: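 Scores (0-9) reflect visual injury relative to untreated plants in flooded silt loam. Each pot held two transplanted ten-day-old seedlings under 1.5 to 3 cm standing water in the greenhouse.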

With `Cn1c(C(F)(F)F)cc(=O)n(-c2ccc3snc(C4OCCCO4)c3c2)c1=O` [Compound 28, 3-(3-m-dioxan-2-yl-1,2-benzisothiazol-5-yl)-1-methyl-6-(trifluoromethyl)uracil] as the compound, how does the “Postemergence herbicidal rating, ABUTH” value ([1]; rate 0.0320 kg/ha) read?
Its value is 9.0.

What about the “Postemergence herbicidal rating, ABUTH” value ([1]; rate 0.0620 kg/ha) of the same compound?
Its value is 9.0.

And the “Postemergence herbicidal rating, AMBEL” value ([2]; rate 0.0320 kg/ha)?
The value was 9.0.

What about the “Postemergence herbicidal rating, AMBEL” value ([2]; rate 0.0620 kg/ha) of the same compound?
The value was 9.0.

And the “Postemergence herbicidal rating, CASOB” value ([3]; rate 0.0320 kg/ha)?
Its value is 8.0.

And the “Postemergence herbicidal rating, CASOB” value ([3]; rate 0.0620 kg/ha)?
Its value is 9.0.

And the “Postemergence herbicidal rating, CHEAL” value ([4]; rate 0.0320 kg/ha)?
Its value is 9.0.

And the “Postemergence herbicidal rating, CHEAL” value ([4]; rate 0.0620 kg/ha)?
Its value is 9.0.

And the “Postemergence herbicidal rating, IPOHE” value ([5]; rate 0.0320 kg/ha)?
The value was 8.3.

What about the “Postemergence herbicidal rating, IPOHE” value ([5]; rate 0.0620 kg/ha) of the same compound?
Its value is 9.0.

What about the “Postemergence herbicidal rating, ECHCG” value ([6]; rate 0.0320 kg/ha) of the same compound?
The value was 4.3.

What about the “Postemergence herbicidal rating, ECHCG” value ([6]; rate 0.0620 kg/ha) of the same compound?
Its value is 8.5.

What about the “Postemergence herbicidal rating, ORYSAT” value (ORYSAT (Rice, Tebonnet) [7]; rate 0.0320 kg/ha) of the same compound?
Its value is 5.3.

What about the “Postemergence herbicidal rating, ORYSAT” value (ORYSAT (Rice, Tebonnet) [7]; rate 0.0620 kg/ha) of the same compound?
Its value is 6.5.

What about the “Postemergence herbicidal rating, TRZAWR” value ([8]; rate 0.0320 kg/ha) of the same compound?
The value was 5.0.

And the “Postemergence herbicidal rating, TRZAWR” value ([8]; rate 0.0620 kg/ha)?
The value was 6.5.

And the “Postemergence herbicidal rating, ZEAMX” value (ZEAMX (Corn, Field); rate 0.0320 kg/ha)?
Its value is 5.8.

And the “Postemergence herbicidal rating, ZEAMX” value (ZEAMX (Corn, Field); rate 0.0620 kg/ha)?
The value was 6.3.

What about the “ABUTH preemergence herbicidal rating” value ([9]; Rate 0.0620 kg/ha) of the same compound?
Its value is 9.0.

What about the “ABUTH preemergence herbicidal rating” value ([9]; Rate 0.1250 kg/ha) of the same compound?
Its value is 9.0.

And the “ABUTH preemergence herbicidal rating” value ([9]; Rate 0.2500 kg/ha)?
The value was 9.0.

And the “AMBEL preemergence herbicidal rating” value ([10]; Rate 0.0620 kg/ha)?
The value was 9.0.

What about the “AMBEL preemergence herbicidal rating” value ([10]; Rate 0.1250 kg/ha) of the same compound?
Its value is 9.0.

What about the “AMBEL preemergence herbicidal rating” value ([10]; Rate 0.2500 kg/ha) of the same compound?
The value was 9.0.

What about the “CASOB preemergence herbicidal rating” value ([11]; Rate 0.0620 kg/ha) of the same compound?
The value was 9.0.

What about the “CASOB preemergence herbicidal rating” value ([11]; Rate 0.1250 kg/ha) of the same compound?
Its value is 9.0.

What about the “CASOB preemergence herbicidal rating” value ([11]; Rate 0.2500 kg/ha) of the same compound?
Its value is 9.0.

What about the “CHEAL preemergence herbicidal rating” value ([12]; Rate 0.0620 kg/ha) of the same compound?
Its value is 9.0.

What about the “CHEAL preemergence herbicidal rating” value ([12]; Rate 0.1250 kg/ha) of the same compound?
Its value is 9.0.

What about the “CHEAL preemergence herbicidal rating” value ([12]; Rate 0.2500 kg/ha) of the same compound?
Its value is 9.0.

What about the “ORYSAT preemergence herbicidal rating” value (ORYSAT (Rice, Tebonnet) [13]; Rate 0.0620 kg/ha) of the same compound?
Its value is 9.0.

And the “ORYSAT preemergence herbicidal rating” value (ORYSAT (Rice, Tebonnet) [13]; Rate 0.1250 kg/ha)?
Its value is 9.0.

And the “ORYSAT preemergence herbicidal rating” value (ORYSAT (Rice, Tebonnet) [13]; Rate 0.2500 kg/ha)?
The value was 9.0.

What about the “TRZAWR preemergence herbicidal rating” value ([14]; Rate 0.0620 kg/ha) of the same compound?
Its value is 9.0.

And the “TRZAWR preemergence herbicidal rating” value ([14]; Rate 0.1250 kg/ha)?
Its value is 9.0.

And the “TRZAWR preemergence herbicidal rating” value ([14]; Rate 0.2500 kg/ha)?
The value was 9.0.

And the “herbicidal rating, ECHORC” value ([15]; rate 0.0080 kg/ha)?
The value was 5.0.

And the “herbicidal rating, ECHORC” value ([15]; rate 0.0320 kg/ha)?
Its value is 8.5.

And the “herbicidal rating, ECHORC” value ([15]; rate 0.1250 kg/ha)?
Its value is 9.0.

And the “herbicidal rating, CYPSE” value ([16]; rate 0.0320 kg/ha)?
The value was 9.0.

What about the “herbicidal rating, CYPSE” value ([16]; rate 0.1250 kg/ha) of the same compound?
Its value is 9.0.

What about the “herbicidal rating, SAGPY” value ([17]; rate 0.0080 kg/ha) of the same compound?
The value was 0.0.

What about the “herbicidal rating, SAGPY” value ([17]; rate 0.0320 kg/ha) of the same compound?
Its value is 8.0.

And the “herbicidal rating, SAGPY” value ([17]; rate 0.1250 kg/ha)?
The value was 9.0.

What about the “herbicidal rating, ORYSAT (rice tolerance)” value (ORYSAT (Rice, Tebonnet) [18]; rate 0.0080 kg/ha) of the same compound?
The value was 7.0.

What about the “herbicidal rating, ORYSAT (rice tolerance)” value (ORYSAT (Rice, Tebonnet) [18]; rate 0.0320 kg/ha) of the same compound?
The value was 9.0.

What about the “herbicidal rating, ORYSAT (rice tolerance)” value (ORYSAT (Rice, Tebonnet) [18]; rate 0.1250 kg/ha) of the same compound?
The value was 9.0.
